Laboratory results as given in PubChem BioAssay (NCI).
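These data come from cells grown in 96-well plates and exposed to compound for 48 hours at five concentrations. GI50 marks 50% less growth. TGI denotes the concentration required for complete inhibition of growth.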

What was measured:
Assay in all cases: inhibition of tumour cell growth, NCI panel, 48 h
UACC-257 melanoma = system: UACC-257 melanoma
SNB-19 CNS = system: SNB-19 CNS
UO-31 renal = system: UO-31 renal
SK-OV-3 ovarian = system: SK-OV-3 ovarian
ACHN renal = system: ACHN renal
TK-10 renal = system: TK-10 renal
MDA-MB-231 breast = system: MDA-MB-231 breast
EKVX NSCLC = system: EKVX NSCLC
HOP-62 NSCLC = system: HOP-62 NSCLC
SN12C renal = system: SN12C renal
KM12 colon = system: KM12 colon
K-562 leukemia = system: K-562 leukemia
NCI/ADR-RES ovarian = system: NCI/ADR-RES ovarian
PC-3 prostate = system: PC-3 prostate
SK-MEL-28 melanoma = system: SK-MEL-28 melanoma
A549 NSCLC = system: A549 NSCLC
LOX IMVI melanoma = system: LOX IMVI melanoma
IGROV1 ovarian = system: IGROV1 ovarian
MCF7 breast = system: MCF7 breast
CAKI-1 renal = system: CAKI-1 renal
OVCAR-3 ovarian = system: OVCAR-3 ovarian
OVCAR-4 ovarian = system: OVCAR-4 ovarian
SK-MEL-2 melanoma = system: SK-MEL-2 melanoma
CCRF-CEM leukemia = system: CCRF-CEM leukemia
OVCAR-8 ovarian = system: OVCAR-8 ovarian
SF-539 CNS = system: SF-539 CNS
SNB-75 CNS = system: SNB-75 CNS
HT29 colon = system: HT29 colon
RPMI-8226 leukemia = system: RPMI-8226 leukemia
HOP-92 NSCLC = system: HOP-92 NSCLC
SF-295 CNS = system: SF-295 CNS
HCT-116 colon = system: HCT-116 colon
MOLT-4 leukemia = system: MOLT-4 leukemia
SF-268 CNS = system: SF-268 CNS
SR leukemia = system: SR leukemia
UACC-62 melanoma = system: UACC-62 melanoma
RXF 393 renal = system: RXF 393 renal
DU-145 prostate = system: DU-145 prostate
NCI-H460 lung = system: NCI-H460 lung
NCI-H522 lung = system: NCI-H522 lung
HS 578T breast = system: HS 578T breast
MDA-MB-435 = system: MDA-MB-435
OVCAR-5 ovarian = system: OVCAR-5 ovarian
A498 renal = system: A498 renal
T-47D breast = system: T-47D breast
786-0 renal = system: 786-0 renal
BT-549 breast = system: BT-549 breast
COLO 205 colon = system: COLO 205 colon
U251 CNS = system: U251 CNS
HL-60(TB) leukemia = system: HL-60(TB) leukemia
MALME-3M melanoma = system: MALME-3M melanoma
NCI-H23 lung = system: NCI-H23 lung
HCT-15 colon = system: HCT-15 colon
HCC-2998 colon = system: HCC-2998 colon
SK-MEL-5 melanoma = system: SK-MEL-5 melanoma
NCI-H226 lung = system: NCI-H226 lung
SW-620 colon = system: SW-620 colon

## CN(C)c1ccc(N=Nc2ccccn2)c(O)c1
UACC-257 melanoma
  GI50: 1240 nM
  TGI: 9040 nM
SNB-19 CNS
  GI50: 501 nM
  TGI: > 100000 nM
UO-31 renal
  GI50: 215 nM
SK-OV-3 ovarian
  GI50: 420 nM
  TGI: > 28300 nM
ACHN renal
  GI50: 271 nM
  TGI: > 100000 nM
TK-10 renal
  GI50: 177 nM
  TGI: 43900 nM
MDA-MB-231 breast
  GI50: 446 nM
  TGI: > 100000 nM
EKVX NSCLC
  GI50: 200 nM
  TGI: 14400 nM
HOP-62 NSCLC
  GI50: 311 nM
  TGI: > 54000 nM
SN12C renal
  GI50: 396 nM
  TGI: > 100000 nM
KM12 colon
  GI50: 465 nM
  TGI: > 76900 nM
K-562 leukemia
  GI50: 355 nM
  TGI: > 100000 nM
NCI/ADR-RES ovarian
  GI50: 281 nM
  TGI: > 27600 nM
PC-3 prostate
  GI50: 416 nM
  TGI: > 100000 nM
SK-MEL-28 melanoma
  GI50: 672 nM
  TGI: > 100000 nM
A549 NSCLC
  GI50: 478 nM
  TGI: > 100000 nM
LOX IMVI melanoma
  GI50: 258 nM
  TGI: > 100000 nM
IGROV1 ovarian
  GI50: 317 nM
  TGI: > 100000 nM
MCF7 breast
  GI50: 271 nM
  TGI: > 100000 nM
CAKI-1 renal
  GI50: 344 nM
  TGI: > 100000 nM
OVCAR-3 ovarian
  GI50: 300 nM
  TGI: > 100000 nM
OVCAR-4 ovarian
  GI50: 164 nM
  TGI: 24600 nM
SK-MEL-2 melanoma
  GI50: 2790 nM
  TGI: > 100000 nM
CCRF-CEM leukemia
  GI50: 97.9 nM
OVCAR-8 ovarian
  GI50: 321 nM
  TGI: > 100000 nM
SF-539 CNS
  GI50: 355 nM
  TGI: 8440 nM
SNB-75 CNS
  GI50: 453 nM
  TGI: 96900 nM
HT29 colon
  GI50: 415 nM
  TGI: > 100000 nM
RPMI-8226 leukemia
  GI50: 348 nM
  TGI: > 100000 nM
HOP-92 NSCLC
  GI50: 666 nM
  TGI: 50200 nM
SF-295 CNS
  GI50: 359 nM
  TGI: > 100000 nM
HCT-116 colon
  GI50: 254 nM
  TGI: > 71700 nM
MOLT-4 leukemia
  GI50: 243 nM
  TGI: > 87800 nM
SF-268 CNS
  GI50: 318 nM
  TGI: > 100000 nM
SR leukemia
  GI50: 123 nM
  TGI: > 100000 nM
UACC-62 melanoma
  GI50: 369 nM
RXF 393 renal
  GI50: 229 nM
  TGI: 929 nM
DU-145 prostate
  GI50: 481 nM
  TGI: > 100000 nM
NCI-H460 lung
  GI50: 296 nM
  TGI: > 32100 nM
NCI-H522 lung
  GI50: 372 nM
HS 578T breast
  GI50: 3530 nM
  TGI: > 85500 nM
MDA-MB-435
  GI50: 556 nM
  TGI: > 100000 nM
OVCAR-5 ovarian
  GI50: 992 nM
  TGI: > 100000 nM
A498 renal
  GI50: 3020 nM
  TGI: 19100 nM
T-47D breast
  GI50: 419 nM
  TGI: > 49100 nM
786-0 renal
  GI50: 246 nM
  TGI: 15900 nM
BT-549 breast
  GI50: 391 nM
  TGI: > 100000 nM
COLO 205 colon
  GI50: 345 nM
  TGI: > 34800 nM
U251 CNS
  GI50: 258 nM
  TGI: > 100000 nM
HL-60(TB) leukemia
  GI50: 228 nM
  TGI: 1460 nM
MALME-3M melanoma
  GI50: 1440 nM
  TGI: > 100000 nM
NCI-H23 lung
  GI50: 564 nM
  TGI: > 100000 nM
HCT-15 colon
  GI50: 112 nM
  TGI: > 100000 nM
HCC-2998 colon
  GI50: 376 nM
  TGI: > 100000 nM
SK-MEL-5 melanoma
  GI50: 433 nM
  TGI: 3350 nM
NCI-H226 lung
  GI50: 515 nM
  TGI: 8670 nM
SW-620 colon
  GI50: 419 nM
  TGI: > 100000 nM
